From US9067968B2, “Tight junction protein modulators and uses thereof” (The Regents of the University of Colorado, a body corporate, priority 2007, dated 2015)
Bridges are numbered along the chain shown (N, C = ends). Where no end group is shown, it is not given here.

Assays:
occludin = assay: Occludin distribution by immunofluorescence after peptide treatment; format: cell-based, mouse; details: mature EPH4 monolayers, 8 hours at 350 μM
Protocol: To establish the effect of LYHY (SEQ ID NO:1) and DFYNP (SEQ ID NO:2) peptide treatment upon the distribution of endogenous occludin, EPH4 cells were treated with the peptides for 8 hours. The effect of peptides on occludin distribution in mature EPH4 cell monolayers is shown on FIG. 3B, where cell cultures grown on glass slides were treated with LYHY (SEQ ID NO:1), DFYNP (SEQ ID NO:2) or control LYQY (SEQ ID NO:3) peptide for 8 hours at 350 μM. Cells were then stained for occludin. […] Occludin was not as brightly stained at the tight junction in these cells and appeared in intracellular regions outside the tight junction.

EPH4 cells [1] = assay: Calcium switch: recovery of transepithelial resistance; format: cell-based, mouse; details: peptide 350 μM, removed after 24 hours
Protocol: To confirm that the LYHY (SEQ ID NO:1) and DFYNP (SEQ ID NO:2) peptides disrupted tight junction properties, a “calcium switch” experiment was performed. The removal of extracellular Ca^+2 and Mg^+2 abolished TER and disrupts intercellular junctions when applied to various epithelia, causing an intracellular redistribution of various cell adhesion proteins, including occludin, away from the apical junction complex. Several epithelial cell lines reorganized the apical junction complex and recovered TER following the replenishment of normal Ca^+2 and Mg^+2 containing medium. The calcium switch was performed on filter-grown EPH4 cells that had achieved a TER of 1000 Ohms·cm^2. After 15 minutes in Ca^+2 and Mg^+2 depleted-medium, TER was reduced to baseline resistance. Cells were then switched back to normal medium containing the occludin peptide, the claudin peptide or the control peptide at a concentration of 350 μM. The control peptide (LYQY (SEQ ID NO:3)) had one amino acid substitution of the occludin peptide and was also circularized with cysteines at each terminus. Peptides were removed after 24 hours. […] TER was measured at 12 and 24 hours following peptide application. Peptides were washed away 24 hours following application and TER was measured every 24 hours thereafter. […]

EPH4 cells [2] = assay: TER of intact high resistance monolayers during peptide treatment; format: cell-based, mouse; details: 350 μM, 3 days of peptide treatment, replenished daily
Protocol: (§1) FIGS. 4A and 4B show the effects of the LYHY (SEQ ID NO:1) peptide on TUNEL reactivity and TER. In particular, FIG. 4A is a graph showing the number of TUNEL stained EPH4 and MDCK cells that were grown on glass slides and treated with LYHY (SEQ ID NO:1) or control peptide for 6 or 12 hours. FIG. 4B is a graph of TER that was recorded at 0, 24, […], and 72 hours post peptide treatment of EPH4 cells that were grown on filters until the TER reached 1000 (Ohms·cm^2), then treated with solvent, LYHY (SEQ ID NO:1), or control peptides. Peptides were diluted to 350 μM in normal growth medium and placed in the top and bottom chambers. TER was recorded at 0, 24, 48, and 72 hours post peptide treatment. Peptides were replenished daily, after recordings.
Similarly, treatment of EPH4 cells with a larger occludin mimic peptide caused a change in occludin distribution while treated cells maintained the majority of control TER.

EPH4 cells [3] = assay: TUNEL staining of peptide-treated EPH4 cells; format: cell-based, mouse; details: for rate of apoptosis: peptide treatment of mature monolayers
Protocol: (§2) TUNEL staining was performed using the Roche In Situ Cell Death Detection Kit, TMR red. Cells were fixed in 2% paraformaldehyde and permeabilized in 1% sodium citrate (trisodium salt) containing 0.1% TX-100. Staining was performed as per manufacturers instructions.
(§3) Having established that LYHY (SEQ ID NO:1) and DFYNP (SEQ ID NO:3) peptides impeded recovery of TER following the calcium switch and changed the normal distribution of occludin, the effects of disruption of occludin function on apoptosis was examined. EPH4 mouse mammary epithelial cells and MDCK canine kidney epithelial cells were treated with LYHY (SEQ ID NO:1) peptide for various times and then TUNEL stained.
as §1

MDCK cells = assay: TUNEL staining of peptide-treated MDCK cells; format: cell-based, canine; details: 6 or 12 hours
Protocol: as §2, §3
as §1, with “Peptides were replenished daily, after recordings.” left out

[4] = system: activated caspase-8 and activated caspase-3; assay: Activated caspase stains in live peptide-treated cells; format: cell-based, mouse; details: EPH4 cells, 2 h post peptide treatment, 350 μM
Protocol: Cells were stained with Image-iT®LIVE Green Caspase-8 Detection Kit, Molecular Probes and/or Image-iT®LIVE Red Caspase-3 and -7 Detection Kit, Molecular Probes. Stains were both diluted into differentiation media that contained LYHY (SEQ ID NO:1) or LYQY (SEQ ID NO:3). Cells were stained in the incubator 1 hour, rinsed in […] differentiation media, and processed for immunofluorescence.
Possible mechanism linking occludin disruption to a known means of initiation of apoptosis was then explored using the LYHY (SEQ ID NO:1) peptide. It is believed that the loss of cellular adhesion results in the activation of the death receptor pathway and specify caspase-8 as the initiator caspase in apoptosis occurring due to loss of either cadherin or integrin function. To observe potential activation of the caspase-8 cascade, live EPH4 cells that had been treated with LYHY (SEQ ID NO:1) or control peptide were stained with cell permeable, fluorescent probes that irreversibly bind the proteolytic sites of activated caspase-8 (carboxyfluoresceine-LETD-fmk) and activated caspase-3 (sulphorhodamine-DEVD-fmk). […] Areas showing caspase-3 activation overlapped with areas showing caspase-8 activation, while caspase-8 activation was more widespread and sometimes occurred alone. […]

Substance | distribution of endogenous occludin (occludin) | TER reached after the calcium switch (EPH4 cells [1]; after about 6 days / several days following peptide removal) [Ohms·cm^2] | time to recover initial TER following the calcium switch (EPH4 cells [1]; initial TER 1000 Ohms·cm^2) [h] | effect on TER of intact monolayers (EPH4 cells [2]) | rate of apoptosis (EPH4 cells [3]) | TUNEL staining (MDCK cells) | staining for activated caspases (caspase-8, caspase-3) [4] | TUNEL staining (EPH4 cells [3]; EPH4 cells, 6 or 12 hours)
Cyclic H-CLYQYC-OH (flanking Cys, cyclised; Control Peptide Fig. 3A) [control peptide with one amino acid substitution of the occludin peptide, circularized with cysteines at each terminus] | Only an occasional cell showing non-tight junctional distribution of occludin | 4000 | ≤ 48 | – | – | – | – | –
H-CDFYNPC (disulfide 1-7; not fully specified) [peptide derived from the second extracellular loop of several claudins, cyclized via flanking cysteines] | islands of cells with irregular occludin distribution | – | – | did not significantly reduce TER | increase the rate of apoptosis | – | – | –
cyclic H-CLYHYC-OH (flanking Cys, cyclised; TJ Protein Modulator 1) [Occludin second extracellular loop peptide, cyclized via flanking cysteines] | islands of cells with irregular occludin distribution | – | – | did not significantly reduce TER | increase the rate of apoptosis | increased TUNEL staining | increased staining for activated caspases relative to controls | increased TUNEL staining
